Read-outs that look alike come from different tables or passages of the source. Numbered stars: 1 amine (or outer) side, 2 acyl side, 3 side chain; on linkers, the order of the positions; unused ones are H or OH. Square brackets hold non-standard residues; d marks the D form. Peptide text beside a SMILES is read from it. * marks the point of attachment. 5FAM = O=C1OC2(c3ccc(O)cc3Oc3cc(O)ccc32)c2ccc(C(=O)*)cc21; NHCH2C6H4(4-CH2CONH2) = NC(=O)Cc1ccc(CN*)cc1; X1 = O=C(Cc1ccc(CN[*:1])cc1)[*:2]
Target: T1, IL-6R (Homo sapiens, UniProt P08887)
T1 construct: purchased Creative Biomart IL6R-584H
T1 sequence (P08887 20-355 limits assumed): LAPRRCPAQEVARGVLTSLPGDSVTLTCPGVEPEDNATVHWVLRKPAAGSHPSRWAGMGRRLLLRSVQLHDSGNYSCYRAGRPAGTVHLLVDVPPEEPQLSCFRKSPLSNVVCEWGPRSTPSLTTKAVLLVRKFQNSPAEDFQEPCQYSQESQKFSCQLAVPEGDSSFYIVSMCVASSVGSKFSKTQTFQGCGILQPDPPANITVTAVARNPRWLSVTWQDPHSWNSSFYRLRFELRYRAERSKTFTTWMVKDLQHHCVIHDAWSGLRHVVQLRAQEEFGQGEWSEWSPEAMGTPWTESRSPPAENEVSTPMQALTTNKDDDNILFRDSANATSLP
Assay: MST binding affinity of resynthesized NNP hits to IL-6R
Settings: MST, NNP2 library hit, target SIL-6R, one-site binding model
Description: Hit binding affinity to various targets were determined using Microscale Thermophoresis (MST). MST experiments were performed on a Monolith NT.115pico (NanoTemper Technologies GmbH, Munich, Germany). Measurements were performed at room temperature, in triplicate with incubation periods of 15, 30 and 45 minutes. […] Targets were labeled using Nanotemper Monolith 2nd Generation Protein Labeling Kits. RED-MALEIMIDE (Maleimide-647-dye) labeling kit was used for K-Ras and RED-NHS (NHS-647-dye) labeling kit was used for IL-6, IL-6R, TNFα and ASGPR. The buffer for the ASGPR contained 20 mM HEPES pH 7.4, 150 mM NaCl, 10 mM MgCl2, 2 mM CaCl2, 0.05% Pluronic F-127, and 1 mM DTT; for IL-6 contained 20 mM HEPES pH 7.4, 150 mM KCl, 10 mM MgCl2, and 0.1% Pluronic F-127; for the soluble IL-6 receptor 20 mM HEPES pH 7.4, 150 mM NaCl, 10 mM MgCl2, and 0.05% Tween-20; for K-Ras 20 mM HEPES pH 7.4, 150 mM NaCl, 10 mM MgCl2, 0.05% Tween-20 and 1 mM DTT; for TNFα 10 mM HEPES pH 7.4, 150 mM NaCl, 10 mM MgCl2, 0.05% Polysorbate-20. Triplicate data was analyzed using MO.AffinityAnalysis software (NanoTemper Technologies GmbH).

[1] = read-out: KD (nM) [95% conf. int]

SMILES | Kd [nM] | Kd [1] [nM]
CC(C)C[C@H](NC(=O)[C@@H](CCCNC(=N)N)NC(=O)[C@@H](C)NC(=O)Cc1ccc(CNC(=O)[C@H](C)NC(=O)[C@@H](Cc2c[nH]c3ccccc23)NC(=O)[C@@H](CCC(=O)O)NC(=O)Cc2ccc(CNC(=O)[C@H](Cc3ccccc3)NC(=O)[C@@H](CCCCN)NC(=O)[C@@H](CCC(=O)O)NC(=O)Cc3ccc(CNC(=O)[C@H](CC(C)C)NC(=O)[C@@H](CCC(=O)O)NC(=O)[C@@H](CCCCN)NC(=O)Cc4ccc(CNC(=O)[C@H](CC(C)C)NC(=O)[C@H](NC(=O)[C@@H](CC(N)=O)NC(=O)Cc5ccc(CNC(=O)[C@@H](NC(=O)[C@@H](CC(N)=O)NC(=O)[C@H]6CCCN6C(=O)Cc6ccc(CNC(=O)[C@H](Cc7ccccc7)NC(=O)[C@@H](Cc7c[nH]c8ccccc78)NC(=O)[C@@H](CCCNC(=N)N)NC(=O)c7ccc8c(c7)C(=O)OC87c8ccc(O)cc8Oc8cc(O)ccc87)cc6)C(C)C)cc5)[C@H](C)O)cc4)cc3)cc2)cc1)C(=O)NCc1ccc(CC(=O)N[C@H](CCC(=O)O)C(=O)N[C@H](CCCNC(=N)N)C(=O)N[C@H](C(=O)NCc2ccc(CC(=O)N[C@H](Cc3ccccc3)C(=O)N[C@H](CCCCN)C(=O)NCC(=O)NCc3ccc(CC(N)=O)cc3)cc2)C(C)C)cc1 [IL6R-87-1, Fluorescein-(D)Arg-(D)Trp-(L)Phe-PAM-(D)Pro-(D)Asn-(L)Val-PAM-(D)Asn-(D)Thr-(L)Leu-PAM-(D)Lys-(D)Glu-(L)Leu-PAM-(D)Glu-(D)Lys-(L)Phe-PAM-(D)Glu-(D)Trp-(L)Ala-PAM-(D)Ala-(D)Arg- (L)Leu-PAM-(D)Glu-(D)Arg-(L)Val-PAM-(D)Phe-(D)Lys-Gly-PAM] (5FAM-[dR][dW]F[X1][dP][dN]V[X1][dN][dT]L[X1][dK][dE]L[X1][dE][dK]F[X1][dE][dW]A[X1][dA][dR]L[X1][dE][dR]V[X1][dF][dK]G-{NHCH2C6H4(4-CH2CONH2)}) | 1.2 | –
CC(C)C[C@H](NC(=O)[C@@H](CCCNC(=N)N)NC(=O)[C@@H](C)NC(=O)Cc1ccc(CNC(=O)[C@H](CC(C)C)NC(=O)[C@@H](CCCNC(=N)N)NC(=O)[C@@H](CCC(=O)O)NC(=O)Cc2ccc(CNC(=O)[C@H](Cc3ccccc3)NC(=O)[C@@H](CCCCN)NC(=O)[C@@H](CCC(=O)O)NC(=O)Cc3ccc(CNC(=O)[C@H](CC(C)C)NC(=O)[C@@H](CCC(=O)O)NC(=O)[C@@H](CCCCN)NC(=O)Cc4ccc(CNC(=O)[C@H](CC(C)C)NC(=O)[C@H](NC(=O)[C@@H](CC(N)=O)NC(=O)Cc5ccc(CNC(=O)[C@H](Cc6ccccc6)NC(=O)[C@@H](CO)NC(=O)[C@@H](CCC(=O)O)NC(=O)Cc6ccc(CNC(=O)[C@H](CC(C)C)NC(=O)[C@@H](CC(C)C)NC(=O)[C@@H](Cc7ccc(O)cc7)NC(=O)c7ccc8c(c7)C(=O)OC87c8ccc(O)cc8Oc8cc(O)ccc87)cc6)cc5)[C@H](C)O)cc4)cc3)cc2)cc1)C(=O)NCc1ccc(CC(=O)N[C@H](Cc2c[nH]c3ccccc23)C(=O)N[C@H](CCCCN)C(=O)N[C@@H](CC(C)C)C(=O)NCc2ccc(CC(=O)N[C@H](Cc3ccccc3)C(=O)N[C@H](CCCCN)C(=O)NCC(=O)NCc3ccc(CC(N)=O)cc3)cc2)cc1 [IL6R-87-2] (5FAM-[dY][dL]L[X1][dE][dS]F[X1][dN][dT]L[X1][dK][dE]L[X1][dE][dK]F[X1][dE][dR]L[X1][dA][dR]L[X1][dW][dK]L[X1][dF][dK]G-{NHCH2C6H4(4-CH2CONH2)}) | – | 0.8
CC(C)C[C@H](NC(=O)[C@@H](CCCNC(=N)N)NC(=O)[C@@H](C)NC(=O)Cc1ccc(CNC(=O)[C@H](CC(C)C)NC(=O)[C@@H](CCCNC(=N)N)NC(=O)[C@@H](CCC(=O)O)NC(=O)Cc2ccc(CNC(=O)[C@H](C)NC(=O)[C@@H](CCCCN)NC(=O)[C@@H](Cc3ccc(O)cc3)NC(=O)Cc3ccc(CNC(=O)[C@H](Cc4ccccc4)NC(=O)[C@@H](CC(N)=O)NC(=O)[C@@H](Cc4ccc(O)cc4)NC(=O)Cc4ccc(CNC(=O)[C@H](CC(C)C)NC(=O)[C@H](NC(=O)[C@@H](CC(N)=O)NC(=O)Cc5ccc(CNC(=O)[C@H](Cc6ccccc6)NC(=O)[C@@H](CO)NC(=O)[C@@H](CCC(=O)O)NC(=O)Cc6ccc(CNC(=O)[C@H](Cc7ccccc7)NC(=O)[C@@H](Cc7c[nH]c8ccccc78)NC(=O)[C@@H](CCCNC(=N)N)NC(=O)c7ccc8c(c7)C(=O)OC87c8ccc(O)cc8Oc8cc(O)ccc87)cc6)cc5)[C@H](C)O)cc4)cc3)cc2)cc1)C(=O)NCc1ccc(CC(=O)N[C@H](CCC(=O)O)C(=O)N[C@H](CCCNC(=N)N)C(=O)N[C@H](C(=O)NCc2ccc(CC(=O)N[C@H](Cc3ccccc3)C(=O)N[C@H](CCCCN)C(=O)NCC(=O)NCc3ccc(CC(N)=O)cc3)cc2)C(C)C)cc1 [IL6R-87-3, Fluorescein-(D)Arg-(D)Trp-(L)Phe-PAM-(D)Glu-(D)Ser-(L)Phe-PAM-(D)Asn-(D)Thr-(L)Leu-PAM-(D)Tyr-(D)Asn-(L)Phe-PAM-(D)Tyr-(D)Lys-(L)Ala-PAM-(D)Glu-(D)Arg-(L)Leu-PAM-(D)Ala-(D)Arg- (L)Leu-PAM-(D)Glu-(D)Arg-(L)Val-PAM-(D)Phe-(D)Lys-Gly-PAM] (5FAM-[dR][dW]F[X1][dE][dS]F[X1][dN][dT]L[X1][dY][dN]F[X1][dY][dK]A[X1][dE][dR]L[X1][dA][dR]L[X1][dE][dR]V[X1][dF][dK]G-{NHCH2C6H4(4-CH2CONH2)}) | 19 | –
CC(C)C[C@H](NC(=O)[C@@H](CCCNC(=N)N)NC(=O)[C@@H](C)NC(=O)Cc1ccc(CNC(=O)[C@H](Cc2ccccc2)NC(=O)[C@@H](CCC(=O)O)NC(=O)[C@H]2CCCN2C(=O)Cc2ccc(CNC(=O)[C@@H](NC(=O)[C@@H](CCCNC(=N)N)NC(=O)[C@@H](Cc3c[nH]c4ccccc34)NC(=O)Cc3ccc(CNC(=O)[C@H](CC(C)C)NC(=O)[C@@H](CCC(=O)O)NC(=O)[C@@H](CCCCN)NC(=O)Cc4ccc(CNC(=O)[C@H](Cc5ccccc5)NC(=O)[C@@H](CO)NC(=O)[C@@H](CCCNC(=N)N)NC(=O)Cc5ccc(CNC(=O)[C@H](Cc6ccccc6)NC(=O)[C@@H](CO)NC(=O)[C@@H](CCC(=O)O)NC(=O)Cc6ccc(CNC(=O)[C@H](Cc7ccccc7)NC(=O)[C@H](NC(=O)[C@@H](CC(N)=O)NC(=O)c7ccc8c(c7)C(=O)OC87c8ccc(O)cc8Oc8cc(O)ccc87)C(C)C)cc6)cc5)cc4)cc3)C(C)C)cc2)cc1)C(=O)NCc1ccc(CC(=O)N2CCC[C@@H]2C(=O)N[C@H](CCCNC(=N)N)C(=O)N[C@@H](C)C(=O)NCc2ccc(CC(=O)N[C@H](Cc3ccccc3)C(=O)N[C@H](CCCNC(=N)N)C(=O)NCC(=O)NCc3ccc(CC(N)=O)cc3)cc2)cc1 [IL6R-87-4] (5FAM-[dN][dV]F[X1][dE][dS]F[X1][dR][dS]F[X1][dK][dE]L[X1][dW][dR]V[X1][dP][dE]F[X1][dA][dR]L[X1][dP][dR]A[X1][dF][dR]G-{NHCH2C6H4(4-CH2CONH2)}) | – | 22
CC(C)C[C@H](NC(=O)[C@@H](CCCNC(=N)N)NC(=O)[C@@H](C)NC(=O)Cc1ccc(CNC(=O)[C@H](CC(C)C)NC(=O)[C@@H](CCCNC(=N)N)NC(=O)[C@@H](CCC(=O)O)NC(=O)Cc2ccc(CNC(=O)[C@@H](NC(=O)[C@@H](C)NC(=O)CNC(=O)Cc3ccc(CNC(=O)[C@@H](NC(=O)[C@@H](CCCNC(=N)N)NC(=O)[C@H]4CCCN4C(=O)Cc4ccc(CNC(=O)[C@H](CC(C)C)NC(=O)[C@H](NC(=O)[C@@H](CC(N)=O)NC(=O)Cc5ccc(CNC(=O)[C@H](CC(C)C)NC(=O)[C@@H](CCCNC(=N)N)NC(=O)[C@@H](CC(C)C)NC(=O)Cc6ccc(CNC(=O)[C@H](Cc7ccccc7)NC(=O)[C@@H](Cc7c[nH]c8ccccc78)NC(=O)[C@@H](CCCNC(=N)N)NC(=O)c7ccc8c(c7)C(=O)OC87c8ccc(O)cc8Oc8cc(O)ccc87)cc6)cc5)[C@H](C)O)cc4)C(C)C)cc3)C(C)C)cc2)cc1)C(=O)NCc1ccc(CC(=O)N2CCC[C@@H]2C(=O)N[C@H](CCCNC(=N)N)C(=O)N[C@@H](C)C(=O)NCc2ccc(CC(=O)N[C@H](Cc3ccccc3)C(=O)N[C@H](CCCNC(=N)N)C(=O)NCC(=O)NCc3ccc(CC(N)=O)cc3)cc2)cc1 [IL6R-87-5, Fluorescein-(D)Arg-(D)Trp-(L)Phe-PAM-(D)Leu-(D)Arg-(L)Leu-PAM-(D)Asn-(D)Thr-(L)Leu-PAM-(D)Pro-(D)Arg-(L)Val-PAM-Gly-(D)Ala-(L)Val-PAM-(D)Glu-(D)Arg-(L)Leu-PAM-(D)Ala-(D)Arg-(L)Leu- PAM-(D)Pro-(D)Arg-(L)Ala-PAM-(D)Phe-(D)Arg-Gly-PAM] (5FAM-[dR][dW]F[X1][dL][dR]L[X1][dN][dT]L[X1][dP][dR]V[X1]G[dA]V[X1][dE][dR]L[X1][dA][dR]L[X1][dP][dR]A[X1][dF][dR]G-{NHCH2C6H4(4-CH2CONH2)}) | 330 | –
